The values that follow come from patent publication EP4775574A1, “FURAN RING-CONTAINING COMPOUND, PHARMACEUTICAL COMPOSITION THEREOF, AND USE THEREOF” (Wuhan Xirui Pharmaceutical Technology Co., Ltd, priority 2023, dated 2025).

Holding throughout (format): cell-based
One assay has as its target T1, Nav1.8 sodium channel (Homo sapiens, UniProt Q9Y5Y9).
T1 construct: host or cells: CHO
As to the kind of experiment: Blocking activity against sodium channel 1.8 (Nav1.8), whole-cell patch-clamp, inhibition rate. The following applies: CHO cell line stably expressing Nav1.8; patch-clamp; test concentration not given. The protocol: Experimental objective: The effects of the compounds on the current of the voltage-gated sodium channel (NaV) 1.8 subtype were detected by patch-clamp technique • 2. […] When the cells were detached from the bottom of the dish, about 5 mL of preheated complete medium at 37°C was added. The cell suspension was gently pipetted up and down to separate the aggregated cells. The cell suspension was transferred to a sterile centrifuge tube and centrifuged at 1000 rpm for 5 min to collect the cells. […] First, the voltage was stepped from -130 mV to -10 mV in 10 mV increments for 5 s, and then a 0 mV depolarizing pulse was applied to obtain the half-inactivation voltage (Vhalf). The resting state and half-inactivated state of the sodium current were detected by using a double-pulse protocol. First, the first depolarizing pulse (TP1) was applied to 0 mV for 50 ms to detect the sodium current in the resting state. Then, the voltage was adjusted to Vhalf and maintained for 5 s, followed by restoration of the voltage to -120 mV and maintenance for 20 ms, after which the second depolarizing pulse (TP2) was applied to 0 mV for 50 ms to detect the sodium current in the half-inactivated state. Finally, the voltage was restored to the clamping voltage of -120 mV. Data were repeatedly collected every […] to observe the effect of the drug on the peak values of sodium currents in the two different states. Experimental data were collected by the EPC 10 amplifier (HEKA) and stored in the PatchMaster (HEKA) software. • (2) During patch clamp operation, capillary glass tubes were first pulled into recording electrodes using a microelectrode puller, then the electrodes filled with intracellular solution were installed into the microelectrode holder. Under an inverted microscope, the micromanipulator was used to bring the recording electrode into contact with the cell, and negative pressure suction was applied to form a GΩ seal. At this time, fast capacitance compensation was performed, and then negative pressure was continuously applied to rupture the cell membrane and form the whole-cell recording mode. Finally, slow capacitance compensation was performed, and related parameters were recorded. Leak compensation was not applied. • (3) When the sodium current of whole-cell recording became stable, drug administration was started, and each drug concentration was applied for 5 min (or until the current became stable) before the next concentration was tested. The coverslip coated with cells was placed in the recording bath under an inverted microscope, and the blank control external solution and the test compound working solution were perfused through the recording bath in sequence from low concentration to high concentration by gravity, thereby acting on the cells, while a peristaltic pump was used for liquid exchange during recording. The current detected in the external solution without compounds for each cell was used as its own control group. Each concentration was independently tested twice. All electrophysiological experiments were conducted at room temperature.
First, the current after the effect of each drug concentration and the blank control current were normalized, then the inhibition rate corresponding to each drug concentration was calculated, that is, (1-Icompound /Icontrol), and the mean, standard deviation (SD), and standard error (SE) of the inhibition rate for each concentration were calculated, and the data were expressed as mean ± SE.
For orientation: The patch-clamp technique gives a direct electrical read-out from membranes.

In the next assay the target is Nav1.4 (Homo sapiens, UniProt P35499). In words: Sodium channel selectivity test, patch-clamp, Nav1.4. The following applies: read-out: Nav1.4 Inhibition rate (%). An excerpt:
(§1) Test Example 3: Selectivity test of the compounds of the present disclosure on sodium channels • 1. Experimental objective: The effects of the compounds on the current of the voltage-gated sodium channel (NaV) subtypes 1.1-1.7 were detected by patch-clamp technique • 2. Experimental materials and instruments • 2.1 Cell lines: CHO/HEK293 cell lines stably expressing Nav1.1-1.7 sodium channels, constructed in-house by the laboratory of Beijing ICE Bioscience Co., Ltd., (Reference: Jarvis MF, Honore P, Shieh CC, Chapman M, Joshi S, Zhang XF, Kort M, Carroll W, Marron B, Atkinson R, Thomas J, Liu D, Krambis M, Liu Y, McGaraughty S, Chu K, Roeloffs R, Zhong C, Mikusa JP, Hernandez G, Gauvin D, Wade C, Zhu C, Pai M, Scanio M, Shi L, Drizin I, Gregg R, Matulenko M, Hakeem A, Gross M, Johnson M, Marsh K, Wagoner PK, Sullivan JP, Faltynek CR, Krafte DS. A-803467, a potent and selective Nav1.8 sodium channel blocker, attenuates neuropathic and inflammatory pain in the rat. Proc Natl Acad Sci U S A. 2007 May 15;104(20):8520-5. doi: 10.1073/pnas.0611364104. Epub 2007 May 2. PMID: 17483457; PMCID: PMC1895982.), gene information Nav1.1: NM_006920; Nav1.2: NM_001040142; Nav1.3: NM_006922; Nav1.4: NM_000334; Nav1.5: NM198056; Nav1.6: NM014191; Nav1.7: […]. • 2.2 Compounds: Dissolved in DMSO, with sample concentration prepared at 30 µM. • 3. Experimental methods • 3.1 Cell culture • (1) Maintenance medium: CHO cells were cultured in HAM'S/F-12 medium containing 10% fetal bovine serum, 100 µg/mL Zeocin, and 10 µg/mL Blasticidin, under conditions of 37°C incubation temperature and 5% carbon dioxide concentration. HEK-293 cells were cultured in DMEM medium containing 10% fetal bovine serum and 800 µg/mL G418; the culture temperature was 37°C, and the carbon dioxide concentration was 5%. • (2) Cell passage: The old medium was removed, and the cells were washed once with PBS, then 1 mL of 0.25%-Trypsin-EDTA solution was added and incubated at 37°C for approximately 1.5 min. When the cells were detached from the bottom of the dish, about 5 mL of preheated complete medium at 37°C was added. […]

A further assay has as its target Nav1.2 (Homo sapiens, UniProt Q99250). As to the kind of experiment: Sodium channel selectivity test, patch-clamp, Nav1.2. The following applies: read-out: Nav1.2 Inhibition rate (%).
Description: as §1

Nav1.4, sequence (P35499 whole entry): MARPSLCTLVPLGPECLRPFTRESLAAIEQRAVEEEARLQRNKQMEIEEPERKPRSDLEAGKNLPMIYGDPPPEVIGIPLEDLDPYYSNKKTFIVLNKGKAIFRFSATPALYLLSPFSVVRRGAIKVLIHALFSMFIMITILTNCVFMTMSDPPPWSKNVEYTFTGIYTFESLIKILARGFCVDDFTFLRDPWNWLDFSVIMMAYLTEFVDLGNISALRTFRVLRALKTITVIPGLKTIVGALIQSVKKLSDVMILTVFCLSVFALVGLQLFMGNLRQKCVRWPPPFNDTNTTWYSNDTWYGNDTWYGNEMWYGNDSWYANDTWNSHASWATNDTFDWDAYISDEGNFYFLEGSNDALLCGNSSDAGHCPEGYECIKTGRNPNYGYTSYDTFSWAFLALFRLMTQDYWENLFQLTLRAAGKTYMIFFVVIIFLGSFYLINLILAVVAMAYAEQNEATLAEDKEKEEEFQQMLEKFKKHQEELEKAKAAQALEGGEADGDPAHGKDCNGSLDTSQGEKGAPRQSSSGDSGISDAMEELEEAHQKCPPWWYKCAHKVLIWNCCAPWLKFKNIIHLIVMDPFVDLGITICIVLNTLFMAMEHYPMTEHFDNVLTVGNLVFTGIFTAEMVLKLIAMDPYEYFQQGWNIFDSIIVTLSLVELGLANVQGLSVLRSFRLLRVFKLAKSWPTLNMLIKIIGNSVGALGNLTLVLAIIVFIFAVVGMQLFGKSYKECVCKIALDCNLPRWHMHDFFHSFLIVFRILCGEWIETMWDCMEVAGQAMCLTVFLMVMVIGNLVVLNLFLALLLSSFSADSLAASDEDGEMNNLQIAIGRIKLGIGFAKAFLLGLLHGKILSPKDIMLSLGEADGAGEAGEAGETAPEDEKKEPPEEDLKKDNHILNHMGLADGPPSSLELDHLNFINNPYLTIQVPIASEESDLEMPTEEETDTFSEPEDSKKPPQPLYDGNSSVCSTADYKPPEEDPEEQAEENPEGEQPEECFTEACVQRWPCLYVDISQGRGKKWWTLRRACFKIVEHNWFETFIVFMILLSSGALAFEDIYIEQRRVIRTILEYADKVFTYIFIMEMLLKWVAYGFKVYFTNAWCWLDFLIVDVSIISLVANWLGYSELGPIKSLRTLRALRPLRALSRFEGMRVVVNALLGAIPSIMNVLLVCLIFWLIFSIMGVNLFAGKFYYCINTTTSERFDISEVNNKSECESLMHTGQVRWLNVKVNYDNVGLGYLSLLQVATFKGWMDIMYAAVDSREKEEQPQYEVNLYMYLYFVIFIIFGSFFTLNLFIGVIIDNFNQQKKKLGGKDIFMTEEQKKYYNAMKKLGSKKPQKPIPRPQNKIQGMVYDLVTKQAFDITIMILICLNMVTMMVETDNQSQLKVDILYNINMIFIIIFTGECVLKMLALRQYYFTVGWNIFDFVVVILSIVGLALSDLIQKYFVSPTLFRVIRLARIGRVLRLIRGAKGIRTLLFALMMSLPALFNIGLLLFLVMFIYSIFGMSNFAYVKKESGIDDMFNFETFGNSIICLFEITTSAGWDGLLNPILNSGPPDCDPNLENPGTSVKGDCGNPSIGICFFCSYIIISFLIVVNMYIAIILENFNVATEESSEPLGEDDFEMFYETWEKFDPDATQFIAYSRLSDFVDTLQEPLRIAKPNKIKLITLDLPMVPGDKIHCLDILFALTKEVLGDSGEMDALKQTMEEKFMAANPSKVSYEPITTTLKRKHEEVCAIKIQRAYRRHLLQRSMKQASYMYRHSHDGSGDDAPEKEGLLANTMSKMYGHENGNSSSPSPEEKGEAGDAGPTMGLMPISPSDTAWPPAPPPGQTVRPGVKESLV
T1 sequence (Q9Y5Y9 whole entry): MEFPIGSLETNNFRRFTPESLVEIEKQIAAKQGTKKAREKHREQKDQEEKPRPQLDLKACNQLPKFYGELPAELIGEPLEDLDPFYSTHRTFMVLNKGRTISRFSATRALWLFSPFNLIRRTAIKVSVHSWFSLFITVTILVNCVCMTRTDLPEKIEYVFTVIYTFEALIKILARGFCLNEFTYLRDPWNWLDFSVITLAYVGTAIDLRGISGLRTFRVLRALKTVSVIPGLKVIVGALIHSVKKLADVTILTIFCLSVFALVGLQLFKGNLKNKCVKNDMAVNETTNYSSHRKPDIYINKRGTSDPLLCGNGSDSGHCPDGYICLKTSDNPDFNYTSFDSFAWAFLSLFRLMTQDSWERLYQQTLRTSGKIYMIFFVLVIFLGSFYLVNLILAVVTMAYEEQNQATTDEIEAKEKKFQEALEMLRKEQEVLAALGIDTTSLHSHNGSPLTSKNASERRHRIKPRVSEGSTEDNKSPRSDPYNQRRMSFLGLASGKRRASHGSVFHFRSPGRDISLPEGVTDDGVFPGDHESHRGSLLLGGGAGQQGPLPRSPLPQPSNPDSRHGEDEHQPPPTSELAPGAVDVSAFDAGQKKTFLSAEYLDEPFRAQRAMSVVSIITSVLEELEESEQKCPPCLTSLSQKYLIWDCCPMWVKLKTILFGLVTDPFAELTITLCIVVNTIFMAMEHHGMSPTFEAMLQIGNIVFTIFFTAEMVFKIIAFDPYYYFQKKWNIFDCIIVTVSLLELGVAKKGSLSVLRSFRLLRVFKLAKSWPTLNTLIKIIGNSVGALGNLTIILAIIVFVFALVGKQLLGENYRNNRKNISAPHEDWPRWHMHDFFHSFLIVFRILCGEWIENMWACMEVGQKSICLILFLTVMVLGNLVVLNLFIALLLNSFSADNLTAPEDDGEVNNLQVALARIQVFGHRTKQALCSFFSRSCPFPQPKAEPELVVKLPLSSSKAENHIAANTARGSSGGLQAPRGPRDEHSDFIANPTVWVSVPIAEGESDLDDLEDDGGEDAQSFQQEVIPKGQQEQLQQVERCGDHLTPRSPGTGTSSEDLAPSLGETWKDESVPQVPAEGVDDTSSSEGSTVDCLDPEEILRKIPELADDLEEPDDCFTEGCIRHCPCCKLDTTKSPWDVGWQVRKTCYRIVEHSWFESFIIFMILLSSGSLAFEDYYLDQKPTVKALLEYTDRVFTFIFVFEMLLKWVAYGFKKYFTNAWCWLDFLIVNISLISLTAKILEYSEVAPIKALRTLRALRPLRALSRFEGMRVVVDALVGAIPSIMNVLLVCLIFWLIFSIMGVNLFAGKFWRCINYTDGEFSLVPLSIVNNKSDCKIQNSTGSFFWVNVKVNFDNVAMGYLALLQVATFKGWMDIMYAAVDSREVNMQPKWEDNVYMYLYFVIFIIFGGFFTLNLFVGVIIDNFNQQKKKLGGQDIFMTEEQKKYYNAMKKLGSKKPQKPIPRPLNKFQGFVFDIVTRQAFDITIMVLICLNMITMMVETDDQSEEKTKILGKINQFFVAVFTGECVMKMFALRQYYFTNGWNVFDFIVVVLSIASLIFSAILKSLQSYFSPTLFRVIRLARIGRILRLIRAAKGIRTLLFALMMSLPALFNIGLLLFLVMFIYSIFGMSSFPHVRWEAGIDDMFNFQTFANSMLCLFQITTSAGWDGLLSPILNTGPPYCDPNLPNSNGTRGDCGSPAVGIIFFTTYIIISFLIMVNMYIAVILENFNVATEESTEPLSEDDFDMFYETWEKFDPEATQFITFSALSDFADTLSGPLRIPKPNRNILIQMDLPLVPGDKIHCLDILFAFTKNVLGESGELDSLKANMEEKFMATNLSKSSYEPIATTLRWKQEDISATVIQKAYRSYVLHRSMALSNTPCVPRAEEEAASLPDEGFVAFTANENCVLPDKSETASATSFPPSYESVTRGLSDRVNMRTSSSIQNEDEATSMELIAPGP

`COc1c([C@H]2[C@H](C(=O)Nc3ccnc(C(N)=O)c3)O[C@@](C)(C(F)(F)F)[C@H]2C)ccc(F)c1F` [Reference compound, reference compound]: on Nav1.8 sodium channel, the “Inhibition rate (%)” value amounted to 94.49%. Moreover, the figures for the inhibition at 30 µM at Nav1.4 and at Nav1.2 were 83.6% and 53.6%, respectively.

For the compound `COCCOc1c([C@H]2[C@H](C(=O)Nc3ccc(F)c(C(=N)NO)c3)O[C@@](C)(C(F)(F)F)[C@H]2C)ccc(F)c1F` [Example 10], the “Inhibition rate (%)” value on Nav1.8 sodium channel stood at 99.65%. Moreover, the inhibition (usually the drop in the measured response relative to a control, in per cent) at 30 µM at Nav1.4 amounted to 75.4%; on Nav1.2, 32.8%.

`C[C@H]1[C@@H](c2ccc(F)c(F)c2OC2COC2)[C@H](C(=O)Nc2ccc(F)c(C(=N)NO)c2)O[C@@]1(C)C(F)(F)F` [Example 11]: the “Inhibition rate (%)” value on Nav1.8 sodium channel came to 87.35%. Moreover, the figures for the inhibition at 30 µM at Nav1.4 and on Nav1.2 were 8.45% and 16%, respectively.
